Patent US8952024B2, “Herbicidal pyrimidone derivatives” (E I du Pont de Nemours and Company, priority 2009, dated 2015)

Experiments:
Assay in all cases: Test B pre-/postemergence plant response
Type in all cases: in vivo
corn (Zea mays) = test system: corn (Zea mays)
Outline: (§1)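 Test compounds, formulated in a non-phytotoxic solvent mixture with surfactant, are applied to the soil surface (loam and sand blend) right after seeding, or sprayed over plants at the 1- to 4-leaf stage grown in peat moss/vermiculite medium. After 13 to 15 days under glasshouse conditions, each species is scored visually from 0 (no effect) to 100 (complete control) against controls.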

[1] = test system: green foxtail (Setaria viridis)
Outline: as §1

[2] = test system: Surinam grass (Brachiaria decumbens)
Outline: as §1

[3] = test system: lambsquarters (Chenopodium album)
Outline: as §1

[4] = test system: large crabgrass (Digitaria sanguinalis)
Outline: as §1

kochia (Kochia scoparia) = settings: Postemergence; for Plant response rating, Kochia: scale 0 (no effect) to 100 (complete control)
Outline: as §1

[5] = test system: goosegrass (Eleusine indica)
Outline: as §1

wild oat (Avena fatua) = test system: wild oat (Avena fatua)
Outline: as §1

[6] = test system: pigweed (Amaranthus retroflexus)
Outline: as §1

[7] = test system: blackgrass (Alopecurus myosuroides)
Outline: as §1

[8] = test system: downy bromegrass (Bromus tectorum)
Outline: as §1

[9] = test system: morningglory (Ipomoea coccinea)
Outline: as §1

soybean (Glycine max) = test system: soybean (Glycine max)
Outline: as §1

[10] = test system: yellow nutsedge (Cyperus esculentus)
Outline: as §1

[11] = test system: velvetleaf (Abutilon theophrasti)
Outline: as §1

[12] = test system: johnsongrass (Sorghum halepense)
Outline: as §1

[13] = test system: woolly cupgrass (Eriochloa villosa)
Outline: as §1

[14] = 250 g ai/ha, Preemergence, 0 to 100 scale
[15] = Postemergence, 31 g ai/ha, scale 0 to 100 (0 no effect, 100 complete control)
[16] = Postemergence, 62 g ai/ha, scale 0 (no effect) to 100 (complete control), 13 to 15 days
[17] = Postemergence, 125 g ai/ha, visual rating after 13 to 15 days, scale 0 (no effect) to 100 (complete control)
[18] = Postemergence, 250 g ai/ha, scale 0 to 100
[19] = Preemergence, 31 g ai/ha, scale 0 to 100 (0 no effect, 100 complete control)
[20] = Preemergence, 62 g ai/ha, scale 0 to 100, 0 no effect, 100 complete control
[21] = Preemergence, 125 g ai/ha, 0 to 100 scale

O=C1CCCC(O)=C1C(=O)c1cnc(-c2ccccc2)n(-c2ccccc2Br)c1=O [Compound 37]
45: Bromegrass, Downy plant response rating [8, 18] | Johnsongrass plant response rating [12, 21]
30: Blackgrass plant response rating [7, 18]
98: Plant response rating, Lambsquarters [3, 16] | Plant response rating, Lambsquarters [3, 17] | Plant response rating, Lambsquarters [3, 20] | Plant response rating, Pigweed [6, 17] | Plant response rating, Velvetleaf [11, 14]
70: Plant response rating, Surinam Grass [2, 16] | Plant response rating, Crabgrass, Large [4, 15] | Plant response rating, Morningglory [9, 16] | Plant response rating, Cupgrass, Woolly [13, 14]
25: Plant response rating, Nutsedge, Yellow [10, 17]
60: Plant response rating, Corn (corn (Zea mays); [17]) | Plant response rating, Foxtail, Green [1, 15] | Plant response rating, Johnsongrass [12, 17]
40: Plant response rating, Oat, Wild (wild oat (Avena fatua); [17]) | Plant response rating, Johnsongrass [12, 16]
90: Plant response rating, Foxtail, Green [1, 14] | Crabgrass, Large plant response rating [4, 18] | Plant response rating, Nutsedge, Yellow [10, 14] | Plant response rating, Johnsongrass [12, 14]
35: Plant response rating, Soybean (soybean (Glycine max); [14])
55: Surinam Grass plant response rating [2, 21] | Plant response rating, Cupgrass, Woolly [13, 15]
95: Foxtail, Green plant response rating [1, 18] | Plant response rating, Lambsquarters [3, 19] | Goosegrass plant response rating [5, 18] | Plant response rating, Soybean (soybean (Glycine max); [17]) | Plant response rating, Velvetleaf [11, 17]
0: Plant response rating, Corn (corn (Zea mays); [14]) | Plant response rating, Corn (corn (Zea mays); [15]) | Plant response rating, Corn (corn (Zea mays); [19]) | Plant response rating, Corn (corn (Zea mays); [20]) | Corn plant response rating (corn (Zea mays); [21]) | Plant response rating, Foxtail, Green [1, 19] | Plant response rating, Foxtail, Green [1, 20] | Foxtail, Green plant response rating [1, 21] | Plant response rating, Surinam Grass [2, 19] | Plant response rating, Crabgrass, Large [4, 19] | Plant response rating, Crabgrass, Large [4, 20] | Plant response rating, Kochia (kochia (Kochia scoparia); 62 g ai/ha, 13 to 15 days) | Plant response rating, Goosegrass [5, 19] | Plant response rating, Oat, Wild (wild oat (Avena fatua); [19]) | Oat, Wild plant response rating (wild oat (Avena fatua); [21]) | Plant response rating, Blackgrass [7, 15] | Plant response rating, Blackgrass [7, 16] | Plant response rating, Blackgrass [7, 19] | Plant response rating, Blackgrass [7, 20] | Plant response rating, Bromegrass, Downy [8, 14] | Plant response rating, Bromegrass, Downy [8, 15] | Plant response rating, Bromegrass, Downy [8, 19] | Plant response rating, Bromegrass, Downy [8, 20] | Bromegrass, Downy plant response rating [8, 21] | Plant response rating, Morningglory [9, 14] | Plant response rating, Morningglory [9, 19] | Plant response rating, Morningglory [9, 20] | Morningglory plant response rating [9, 21] | Plant response rating, Soybean (soybean (Glycine max); [19]) | Soybean plant response rating (soybean (Glycine max); [21]) | Plant response rating, Nutsedge, Yellow [10, 19] | Plant response rating, Velvetleaf [11, 19] | Plant response rating, Johnsongrass [12, 19] | Plant response rating, Johnsongrass [12, 20] | Plant response rating, Cupgrass, Woolly [13, 19] | Plant response rating, Cupgrass, Woolly [13, 20]
20: Nutsedge, Yellow plant response rating [10, 21] | Velvetleaf plant response rating [11, 21]
65: Plant response rating, Foxtail, Green [1, 16] | Kochia plant response rating (kochia (Kochia scoparia); 250 g ai/ha, scale 0 to 100) | Plant response rating, Cupgrass, Woolly [13, 16]
75: Corn plant response rating (corn (Zea mays); [18]) | Plant response rating, Surinam Grass [2, 17] | Plant response rating, Crabgrass, Large [4, 16] | Plant response rating, Morningglory [9, 17] | Plant response rating, Cupgrass, Woolly [13, 17]
15: Plant response rating, Corn (corn (Zea mays); [16]) | Plant response rating, Kochia (kochia (Kochia scoparia); 125 g ai/ha, visual rating after 13 to 15 days) | Plant response rating, Bromegrass, Downy [8, 17] | Plant response rating, Nutsedge, Yellow [10, 16]
5: Plant response rating, Blackgrass [7, 17] | Blackgrass plant response rating [7, 21]
85: Plant response rating, Foxtail, Green [1, 17] | Plant response rating, Crabgrass, Large [4, 17] | Plant response rating, Goosegrass [5, 16] | Plant response rating, Goosegrass [5, 17] | Plant response rating, Pigweed [6, 16] | Johnsongrass plant response rating [12, 18]
10: Crabgrass, Large plant response rating [4, 21] | Plant response rating, Oat, Wild (wild oat (Avena fatua); [14]) | Plant response rating, Oat, Wild (wild oat (Avena fatua); [16]) | Plant response rating, Blackgrass [7, 14] | Plant response rating, Bromegrass, Downy [8, 16] | Cupgrass, Woolly plant response rating [13, 21]
100: Plant response rating, Surinam Grass [2, 14] | Plant response rating, Lambsquarters [3, 14] | Lambsquarters plant response rating [3, 18] | Lambsquarters plant response rating [3, 21] | Plant response rating, Crabgrass, Large [4, 14] | Plant response rating, Goosegrass [5, 14] | Plant response rating, Pigweed [6, 14] | Plant response rating, Pigweed [6, 19] | Pigweed plant response rating [6, 21] | Cupgrass, Woolly plant response rating [13, 18]
80: Goosegrass plant response rating [5, 21] | Plant response rating, Soybean (soybean (Glycine max); [16]) | Plant response rating, Velvetleaf [11, 16]
